Legend:
[1] = system: false cleavers; assay: Test Example 5: herbicidal effect by foliage application, plastic box (Table 20, symbol Q); type: in vivo, false cleavers (Galium spurium); settings: for Q: false cleavers, herbicidal effect grade / herbicidal effect on false cleavers (Q): foliage application, three weeks after application
In short: (§1)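 Foliar spray test: emulsion formulation diluted in water to a set application rate, sprayed onto 14-day-old plants raised in diluvial soil at 25° C to 30° C under glass. Both herbicidal effect and crop effect rated visually three weeks later.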

[2] = system: beet; assay: Test Example 4: effect on crop by soil treatment (Table 19, symbol f); type: in vivo; settings: amount of applied herbicide 320 g/ha
In short: (§2)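 Herbicidal effect was rated 3 weeks after treatment, using the scoring criteria of an earlier test. The compound, formulated as an emulsion and diluted in water to a set herbicide amount, had been sprayed uniformly on soil over freshly sown seeds. Growth took place in a greenhouse at 25° C. to 30° C.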

[3] = system: corn; assay: Test Example 5: effect on crop by foliage application, plastic box (Table 20, symbol c); type: in vivo; settings: 320 g/ha, three weeks after application
In short: as §1

[4] = system: soybean; assay: Test Example 4: effect on crop by soil treatment (Table 19, symbol d); type: in vivo; settings: amount of applied herbicide 320 g/ha
In short: as §2

[5] = system: rapeseed; assay: Test Example 4: effect on crop by soil treatment (Table 19, symbol g); type: in vivo; settings: amount of applied herbicide 320 g/ha
In short: as §2

[6] = system: directly sowed rice; assay: Test Example 3: effect on crop by foliage application, Wagner pot (Table 18, symbol b); type: in vivo; settings: 320 g/ha
In short: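 Plants were sown in alluvial soil held under 0.1–0.5 cm standing water and grown 14 days in a greenhouse at 25–30 °C. An emulsifiable formulation, water-diluted to the set dose, was then sprayed onto the foliage, and effects were scored three weeks later using previously defined criteria.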

[7] = system: transplanted rice; assay: Test Example 1: effect on crop, application before weed generation under submerged conditions (Table 16, symbol a); type: in vivo; settings: amount of applied herbicide 320 g/ha
Excerpt: [Test Example 1] Herbicidal Activity Test by Application before Weed Generation under Submerged Conditions After alluvial soil was placed into 1/10000 are of Wagner pot, water was poured and mixed to form a submerged condition having a water depth of 4 cm. Seeds of late watergrass, Japanese bulrush, and oval-leafed pondweed were sowed in a mixed manner in the aforementioned pot, and then 2.5 leaf stage rice plant seedlings were transplanted thereto. On the day of sowing seeds, the emulsion agent of the compound of the present invention prepared according to Formulation Example 2 was diluted with water so as to achieve a predetermined herbicide amount, and the diluted emulsion agent was applied to the surface of the water. The pot was placed in a greenhouse at 25° C. to 30° C. for growth of the plants. Three weeks after the herbicide application, the effect of the herbicide on each plant was evaluated according to the following criteria. Evaluation Criteria 5: Herbicidal rate of 90% or more (almost completely withered) 4: Herbicidal rate of 70% or more and less than 90% 3: Herbicidal rate of 40% or more and less than 70% 2: Herbicidal rate of 20% or more and less than 40% 1: Herbicidal rate of 5% or more and less than 20% 0: Herbicidal rate of 5% or less (almost no effect)

[8] = system: corn; assay: Test Example 4: effect on crop by soil treatment (Table 19, symbol c); type: in vivo; settings: amount of applied herbicide 320 g/ha
In short: as §2

[9] = system: wheat; assay: Test Example 4: effect on crop by soil treatment (Table 19, symbol e); type: in vivo; settings: amount of applied herbicide 320 g/ha
In short: as §2

[10] = system: soybean; assay: Test Example 5: effect on crop by foliage application, plastic box (Table 20, symbol d); type: in vivo; settings: 320 g/ha, three weeks after application
In short: as §1

[11] = system: wheat; assay: Test Example 5: effect on crop by foliage application, plastic box (Table 20, symbol e); type: in vivo; settings: 320 g/ha, three weeks after application
In short: as §1

[12] = system: rapeseed; assay: Test Example 5: effect on crop by foliage application, plastic box (Table 20, symbol g); type: in vivo; settings: 320 g/ha, three weeks after application
In short: as §1

[13] = system: beet; assay: Test Example 5: effect on crop by foliage application, plastic box (Table 20, symbol f); type: in vivo; settings: 320 g/ha, three weeks after application
In short: as §1

## CCCC(=O)Oc1c(C)nn(C)c(=O)c1-c1c(-c2ccccc2OC)sc2cc(F)ccc12 [3-004]
[1]; 320 g/ha
  Q: false cleavers, herbicidal effect grade: 5 (Herbicidal rate of 90% or more (almost completely withered))

## COc1ccc(-c2sc3cc(F)ccc3c2-c2c(O)c(C)nn(C)c2=O)cc1 [3-005]
[1]; 320 g/ha
  Q: false cleavers, herbicidal effect grade: 4 (Herbicidal rate of 70% or more and less than 90%)

## CCCC(=O)Oc1c(C)nn(C)c(=O)c1-c1c(-c2ccccc2OCC)sc2cc(F)ccc12 [3-007]
[1]; 320 g/ha
  Q: false cleavers, herbicidal effect grade: 5 (Herbicidal rate of 90% or more (almost completely withered))

## CCCC(=O)Oc1c(C)nn(C)c(=O)c1-c1c(-c2ccccc2OCC)sc2cc(Cl)ccc12 [3-040]
[1]; 320 g/ha
  Q: false cleavers, herbicidal effect grade: 5 (Herbicidal rate of 90% or more (almost completely withered))

## CCCC(=O)Oc1c(C)nn(C)c(=O)c1-c1c(-c2ccccc2OC)sc2cc(C)ccc12 [3-050]
[1]; 224 g/ha
  Q: false cleavers, herbicidal effect grade: 4 (Herbicidal rate of 70% or more and less than 90%)

## CCCC(=O)Oc1c(C)nn(C)c(=O)c1-c1c(-c2ccccc2OCC)sc2cc(C)ccc12 [3-054]
[1]; 304 g/ha
  Q: false cleavers, herbicidal effect grade: 5 (Herbicidal rate of 90% or more (almost completely withered))

## COc1cc(F)ccc1-c1sc2cc(C)ccc2c1-c1c(O)c(C)nn(C)c1=O [3-055]
[1]; 320 g/ha
  Q: false cleavers, herbicidal effect grade: 4 (Herbicidal rate of 70% or more and less than 90%)

## CCCC(=O)Oc1c(C)nn(C)c(=O)c1-c1c(-c2ccccc2OCC)sc2cc(OC)ccc12 [3-071]
[1]; 320 g/ha
  Q: false cleavers, herbicidal effect grade: 5 (Herbicidal rate of 90% or more (almost completely withered))

## CCOc1cc(F)ccc1-c1sc2cc(OC)ccc2c1-c1c(O)c(C)nn(C)c1=O [3-078]
[1]; 80 g/ha
  Q: false cleavers, herbicidal effect grade: 5 (Herbicidal rate of 90% or more (almost completely withered))

## CCCC(=O)Oc1c(C)nn(C)c(=O)c1-c1c(-c2ccc(F)cc2OCC)sc2cc(OC)ccc12 [3-079]
[1]; 320 g/ha
  Q: false cleavers, herbicidal effect grade: 5 (Herbicidal rate of 90% or more (almost completely withered))

## COc1ccc2c(-c3c(O)c(C)nn(C)c3=O)c(-c3ccc4c(c3)OCCO4)sc2c1 [3-082]
[1]; 320 g/ha
  Q: false cleavers, herbicidal effect grade: 5 (Herbicidal rate of 90% or more (almost completely withered))

## CCCC(=O)Oc1c(C)nn(C)c(=O)c1-c1c(-c2ccc3c(c2)OCCO3)sc2cc(OC)ccc12 [3-083]
[1]; 320 g/ha
  Q: false cleavers, herbicidal effect grade: 5 (Herbicidal rate of 90% or more (almost completely withered))

## CCOc1ccc2c(-c3c(O)c(C)nn(C)c3=O)c(-c3ccccc3OC)sc2c1 [3-089]
[1]; 320 g/ha
  Q: false cleavers, herbicidal effect grade: 5 (Herbicidal rate of 90% or more (almost completely withered))

## CCOc1ccc2c(-c3c(O)c(C)nn(C)c3=O)c(-c3ccccc3OCC)sc2c1 [3-093]
[1]; 320 g/ha
  Q: false cleavers, herbicidal effect grade: 5 (Herbicidal rate of 90% or more (almost completely withered))

## CCCC(=O)Oc1c(C)nn(C)c(=O)c1-c1c(-c2ccccc2OCC)sc2cc(OCC)ccc12 [3-094]
[1]; 323 g/ha
  Q: false cleavers, herbicidal effect grade: 5 (Herbicidal rate of 90% or more (almost completely withered))

## CCCC(=O)Oc1c(C)nn(C)c(=O)c1-c1c(-c2ccc(F)cc2OCC)sc2cc(OCC)ccc12 [3-096]
[1]; 320 g/ha
  Q: false cleavers, herbicidal effect grade: 5 (Herbicidal rate of 90% or more (almost completely withered))

## CCCC(=O)Oc1c(C)nn(C)c(=O)c1-c1c(-c2ccccc2OC)sc2cc(F)c(F)cc12 [5-012]
[1]; amount of applied herbicide 320 g/ha, foliage application after 14-day growth, evaluated three weeks after application
  Herbicidal effect by foliage application, Q: false cleavers: 5 (Herbicidal rate of 90% or more (almost completely withered))

## CCOc1ccc2c(-c3c(O)c(C)nn(C)c3=O)c(-c3ccccc3OC)sc2c1Cl [7-003]
[1]; 320 g/ha
  herbicidal effect on false cleavers (Q): 5 (Herbicidal rate of 90% or more (almost completely withered))

## CCCC(=O)Oc1c(C)nn(C)c(=O)c1-c1c(-c2ccc(F)cc2)oc2ccc(C)cc12 [9-005]
[1]; 390 g/ha
  herbicidal effect on false cleavers (Q): 4 (Herbicidal rate of 70% or more and less than 90%)

## COc1ccc(-c2oc3ccc(C)cc3c2-c2c(O)c(C)nn(C)c2=O)cc1 [9-007]
[1]; 320 g/ha
  herbicidal effect on false cleavers (Q): 1 (Herbicidal rate of 5% or more and less than 20%)

## CCCC(=O)Oc1c(C)nn(C)c(=O)c1-c1c(-c2ccc(OC)cc2)oc2ccc(C)cc12 [9-008]
[1]; 320 g/ha
  herbicidal effect on false cleavers (Q): 0 (Herbicidal rate of 5% or less (almost no effect))

## COc1ccc2c(-c3c(O)c(Cl)nn(C)c3=O)c(-c3ccccc3OC)sc2c1 [Compound No. 3-088, 6-chloro-5-hydroxy-4-(6-methoxy-2-(2-methoxyphenyl)benzo[b]thiophen-3-yl)-2-methylpyridazin-3(2H)-one]
[2]
  f: beet, effect on crop grade: 3 (Herbicidal rate of 40% or more and less than 70%)
[3]
  c: corn, effect on crop grade: 0 (Herbicidal rate of 5% or less (almost no effect))
[4]
  d: soybean, effect on crop grade: 1 (Herbicidal rate of 5% or more and less than 20%)
[5]
  g: rapeseed, effect on crop grade: 5 (Herbicidal rate of 90% or more (almost completely withered))
[6]
  effect on directly sowed rice (b): 0 (Herbicidal rate of 5% or less (almost no effect))
[7]
  Effect on crop, a: transplanted rice: 0 (Herbicidal rate of 5% or less (almost no effect))
[8]
  c: corn, effect on crop grade: 0 (Herbicidal rate of 5% or less (almost no effect))
other
  melting point: 209 to 211 °C
[9]
  e: wheat, effect on crop grade: 0 (Herbicidal rate of 5% or less (almost no effect))
[10]
  d: soybean, effect on crop grade: 3 (Herbicidal rate of 40% or more and less than 70%)
[11]
  e: wheat, effect on crop grade: 0 (Herbicidal rate of 5% or less (almost no effect))
[12]
  g: rapeseed, effect on crop grade: 5 (Herbicidal rate of 90% or more (almost completely withered))
[13]
  f: beet, effect on crop grade: 5 (Herbicidal rate of 90% or more (almost completely withered))

## COc1ccccc1-c1sc2cc(OCC(F)(F)F)ccc2c1-c1c(O)c(C)nn(C)c1=O [Compound No. 3-116, 5-hydroxy-4-(2-(2-methoxyphenyl)-6-(2,2,2-trifluoroethoxy)benzo[b]thiophen-3-yl)-2,6-di methylpyridazin-3 (2H)-one]
[2]
  f: beet, effect on crop grade: 5 (Herbicidal rate of 90% or more (almost completely withered))
[3]
  c: corn, effect on crop grade: 0 (Herbicidal rate of 5% or less (almost no effect))
[4]
  d: soybean, effect on crop grade: 1 (Herbicidal rate of 5% or more and less than 20%)
[5]
  g: rapeseed, effect on crop grade: 5 (Herbicidal rate of 90% or more (almost completely withered))
[6]
  effect on directly sowed rice (b): 5 (Herbicidal rate of 90% or more (almost completely withered))
[7]
  Effect on crop, a: transplanted rice: 4 (Herbicidal rate of 70% or more and less than 90%)
[8]
  c: corn, effect on crop grade: 0 (Herbicidal rate of 5% or less (almost no effect))
other
  melting point: 216 to 218 °C
[9]
  e: wheat, effect on crop grade: 1 (Herbicidal rate of 5% or more and less than 20%)
[10]
  d: soybean, effect on crop grade: 5 (Herbicidal rate of 90% or more (almost completely withered))
[11]
  e: wheat, effect on crop grade: 3 (Herbicidal rate of 40% or more and less than 70%)
[12]
  g: rapeseed, effect on crop grade: 5 (Herbicidal rate of 90% or more (almost completely withered))
[13]
  f: beet, effect on crop grade: 5 (Herbicidal rate of 90% or more (almost completely withered))

Source: patent US20230085307A1, “PYRIDAZINONE COMPOUND AND HERBICIDE” (NISSAN CHEMICAL CORPORATION, priority 2019, published 2023)
